Assay results: US7906545B2, “Prodrugs of CC-1065 analogs” (priority 2002, dated 2011)

Legend:
[1] = cited from earlier work
[2] = vs doxorubicin, methotrexate and vincristine; cited from earlier work
mice = conditions: single intravenous dose of 12.5 μg/kg; cited from earlier work
[3] = phenyl carbamate prodrug of adozelesin; cited from earlier work
carboxyl esterase = test: conversion of carbamate prodrug into parent drug by incubation in serum, plasma or with carboxyl esterase; format: in vitro ADME; conditions: plasma or with an enzyme such as carboxyl esterase
Description: Thus, piperazino carbamate and 4-piperidino-piperidino carbamate protecting groups are enzyme-cleavable by enzymes such as carboxyl esterase, which occurs in serum and plasma. Phosphate protecting groups are cleavable by phosphatase enzymes such as alkaline phosphatase.

[4] = stability in aqueous solutions; format: physicochemical
[5] = as compared with DC1
alkaline phosphatase = conditions: incubation with alkaline phosphatase
Procedure: Cells to be evaluated can be exposed to the compounds for 24 hours and the surviving fractions of cells measured in direct assays by known methods.

[6] = system: endogenous alkaline phosphatase; conditions: presumably hydrolysis by endogenous alkaline phosphatase; cited from earlier work

Cc1c[nH]c2c1[C@@]13C[C@@H]1CN(C(=O)c1cc4cc(NC(=O)c5cc6ccccc6o5)ccc4[nH]1)C3=CC2=O [Adozelesin]
systemic toxicity in clinical evaluation [1]: high systemic toxicity
therapeutic effects in clinical evaluation [1]: poor therapeutic effects

COc1c(O)c2c(c3cc(C(=O)N4CCc5c4c(O)c(OC)c4[nH]c(C(=O)N6CC7CC78C6=CC(=O)c6[nH]cc(C)c68)cc54)[nH]c13)CCN2C(N)=O (centres unmarked) [CC-1065]
potency in vitro relative to commonly used anti-cancer drugs [2]: about 1000 fold
delayed toxicity in mice (mice): delayed hepatotoxicity leading to mortality on day 50

CCN(CC)c1ccc2cc(C(=O)Nc3ccc4[nH]c(C(=O)N5C[C@@H](CCl)c6c5cc(OC(=O)Nc5ccccc5)c5[nH]cc(C)c65)cc4c3)oc2c1 [Carzelesin]
systemic toxicity in clinical evaluation [1]: high systemic toxicity
therapeutic effects in clinical evaluation [1]: poor therapeutic effects
lability of prodrug [3]: too labile for therapeutic use

CN1CCN(C(=O)Oc2cc3c(c4ccccc24)[C@H](CCl)CN3C(=O)c2cc3cc(NC(=O)c4cc5cc(NC(=O)CCS)ccc5[nH]4)ccc3[nH]2)CC1 [DC2]
conversion into the parent drug DC1 (carboxyl esterase): can be converted into the parent drug DC1
stability in aqueous solutions [4]: extremely stable
water solubility [5]: enhanced water solubility

O=C(CCS)Nc1ccc2[nH]c(C(=O)Nc3ccc4[nH]c(C(=O)N5C[C@@H](CCl)c6c5cc(OC(=O)N5CCC(N7CCCCC7)CC5)c5ccccc65)cc4c3)cc2c1 [DC3]
conversion into the parent drug DC1 (carboxyl esterase): can be converted into the parent drug DC1
stability in aqueous solutions [4]: extremely stable
water solubility [5]: enhanced water solubility

O=C(CCS)Nc1ccc2[nH]c(C(=O)Nc3ccc4[nH]c(C(=O)N5C[C@@H](CCl)c6c5cc(OP(=O)(O)O)c5ccccc65)cc4c3)cc2c1 [DC4]
stability in aqueous solutions [4]: extremely stable
conversion into the parent drug DC1 (alkaline phosphatase): converts it into the parent drug DC1
water solubility [5]: soluble

COc1cc([C@@H]2c3cc4c(cc3[C@@H](O[C@@H]3O[C@@H]5CO[C@@H](C)O[C@H]5[C@H](O)[C@H]3O)[C@H]3COC(=O)[C@H]23)OCO4)cc(OC)c1OP(=O)(O)O [etoposide phosphate]
conversion in vivo into active drug [6]: rapidly converted into active drug
